Reference: ChEMBL document CHEMBL1147182, “Clubbed thiazoles by MAOS: a novel approach to cyclin-dependent kinase 5/p25 inhibitors as a potential treatment for Alzheimer's disease” (Bioorg Med Chem, 2007)

Key:
[1] = target: Cyclin-dependent kinase 5/CDK5 activator 1 (Homo sapiens, UniProt Q00535); test: Inhibition of human cdk5/p25 by SPA; type: protein-complex assay
[2] = target: Cyclin-dependent kinase 2/cyclin E (Homo sapiens, UniProt P24941); test: Inhibition of human cdk2/cyclin E by SPA; type: protein-complex assay
Homo sapiens = organism: Homo sapiens; test: Selectivity for human cdk5/[…] over human cdk2/cyclin E
[3] = Cytotoxicity against VeroC1008 cells at 6.25 to 50 ug/ml by neutral red uptake assay; type: cell-based; conditions: chlorocebus sabaeus, vero

Chain of Cyclin-dependent kinase 5/CDK5 activator 1 (Q00535 whole entry): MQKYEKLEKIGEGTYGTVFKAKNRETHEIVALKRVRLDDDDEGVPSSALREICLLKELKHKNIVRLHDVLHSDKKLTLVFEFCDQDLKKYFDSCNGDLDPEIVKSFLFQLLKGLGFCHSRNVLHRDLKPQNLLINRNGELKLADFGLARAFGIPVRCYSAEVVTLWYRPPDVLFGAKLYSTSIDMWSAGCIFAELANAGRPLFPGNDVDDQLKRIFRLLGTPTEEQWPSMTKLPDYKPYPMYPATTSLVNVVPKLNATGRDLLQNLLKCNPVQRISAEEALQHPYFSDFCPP
Chain of Cyclin-dependent kinase 5/CDK5 activator 1 (Q15078 whole entry, further chain): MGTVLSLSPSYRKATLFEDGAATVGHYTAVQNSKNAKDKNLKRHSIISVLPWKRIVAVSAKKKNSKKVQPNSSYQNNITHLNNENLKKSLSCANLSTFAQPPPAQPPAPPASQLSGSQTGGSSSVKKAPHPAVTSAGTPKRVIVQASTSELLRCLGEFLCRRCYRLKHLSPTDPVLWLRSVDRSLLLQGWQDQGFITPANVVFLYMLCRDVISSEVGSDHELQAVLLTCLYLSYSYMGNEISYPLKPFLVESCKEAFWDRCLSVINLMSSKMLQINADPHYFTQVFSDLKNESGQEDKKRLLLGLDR

Compound	IC50 [1]	IC50 [2]	Ratio IC50 (Homo sapiens)	Activity [3]
NNC(=O)CSc1nnc(Cc2csc(NC(=O)c3ccccc3)n2)n1NC(=O)c1ccc(Cl)cc1	34 nM	468 nM	13.8	Non-toxic
CC(=O)Nc1nc(Cc2nnc(SCC(=O)N/N=C/c3ccccc3)n2NC(=O)c2ccc(Cl)cc2)cs1	30 nM	512 nM	17	Non-toxic
NNC(=O)CSc1nnc(Cc2csc(NC(=O)CCl)n2)n1NC(=O)c1ccc(Cl)cc1	44 nM	890 nM	20	Non-toxic
N#CCSc1nnc(Cc2csc(NCCC(=O)O)n2)n1NC(=O)c1ccccc1	487 nM	–	–	Non-toxic
O=C(CCl)Nc1nc(Cc2nnc(SCSc3nnc(Cc4csc(NC(=O)CCl)n4)n3NC(=O)c3ccccc3)n2NC(=O)c2ccccc2)cs1	674 nM	–	–	Non-toxic
CC(=O)Nn1c(Cc2csc(NCCC(=O)O)n2)n[nH]c1=S	436 nM	–	–	Non-toxic
NNC(=O)CSc1nnc(Cc2csc(NC(=O)CCl)n2)n1NC(=O)c1ccccc1	246 nM	–	–	Non-toxic
O=C(CSc1nnc(Cc2csc(NC(=O)c3ccccc3)n2)n1NC(=O)c1ccccc1)NNC(=O)c1ccccc1	463 nM	–	–	Non-toxic
COC(=O)CSc1nnc(Cc2csc(NCCC(=O)O)n2)n1NC(=O)c1ccccc1	648 nM	–	–	Non-toxic
O=C(CSc1nnc(Cc2csc(NC(=O)c3ccccc3)n2)n1NC(=O)c1ccccc1)N/N=C/c1ccccc1	496 nM	–	–	Non-toxic
CC(=O)NNC(=O)CSc1nnc(Cc2csc(NC(C)=O)n2)n1NC(=O)c1ccc(Cl)cc1	641 nM	–	–	Non-toxic
O=C(O)CCNc1nc(Cc2nnc(SCC(=O)N/N=C/c3ccccc3)n2NC(=O)c2ccccc2)cs1	526 nM	–	–	Non-toxic
CC(=O)Nn1c(Cc2csc(NC(=O)c3ccccc3)n2)nnc1SCc1nnc(S)n1N	6340 nM	–	–	Non-toxic
O=C(O)CCNc1nc(Cc2nnc(SCC(=O)NNC(=O)c3ccccc3)n2NC(=O)c2ccccc2)cs1	432 nM	–	–	Non-toxic
CC(=O)Nn1c(Cc2csc(NC(=O)CCl)n2)nnc1SCC(=O)N/N=C/c1ccccc1	536 nM	–	–	Non-toxic
O=C(CSc1nnc(Cc2csc(NC(=O)c3ccccc3)n2)n1NC(=O)c1ccc(Cl)cc1)NNC(=O)c1ccccc1	484 nM	–	–	Non-toxic
CC(=O)Nn1c(Cc2csc(NC(=O)c3ccccc3)n2)nnc1SCC(=O)N/N=C/c1ccccc1	467 nM	–	–	Non-toxic
CC(=O)Nc1nc(Cc2n[nH]c(=S)n2NC(C)=O)cs1	598 nM	–	–	Non-toxic
CC(=O)Nc1nc(Cc2nnc(SCC(=O)N/N=C/c3ccccc3)n2NC(=O)c2ccccc2)cs1	485 nM	–	–	Non-toxic

Compound	IC50 [1]	IC50 [2]	Ratio IC50 (Homo sapiens)	Activity [3]
O=C(O)CCNc1nc(Cc2nnc(SCC(=O)NNC(=O)CCl)n2NC(=O)c2ccc(Cl)cc2)cs1	180 nM	–	–	Non-toxic
CC(=O)Nn1c(Cc2csc(NC(=O)c3ccccc3)n2)nnc1SCC(=O)NN	186 nM	–	–	Non-toxic
COC(=O)CSc1nnc(Cc2csc(NC(=O)c3ccccc3)n2)n1NC(=O)c1ccccc1	364 nM	–	–	Non-toxic
O=C(CSc1nnc(Cc2csc(NC(=O)c3ccccc3)n2)n1NC(=O)c1ccc(Cl)cc1)N/N=C/c1ccccc1	246 nM	–	–	Non-toxic
CC(=O)Nc1nc(Cc2nnc(SCC(=O)NN)n2NC(C)=O)cs1	241 nM	–	–	Non-toxic
CC(=O)Nc1nc(Cc2nnc(SCSc3nnc(Cc4csc(NC(C)=O)n4)n3NC(=O)c3ccc(Cl)cc3)n2NC(=O)c2ccc(Cl)cc2)cs1	382 nM	–	–	Non-toxic
N#CCSc1nnc(Cc2csc(NC(=O)CCl)n2)n1NC(=O)c1ccccc1	657 nM	–	–	Non-toxic
O=C(O)CCNc1nc(Cc2nnc(SCC(=O)NNC(=O)c3ccccc3)n2NC(=O)c2ccc(Cl)cc2)cs1	268 nM	–	–	Non-toxic
CC(=O)Nc1nc(Cc2nnc(SCSc3nnc(Cc4csc(NC(C)=O)n4)n3NC(C)=O)n2NC(C)=O)cs1	847 nM	–	–	Non-toxic
CC(=O)Nc1nc(Cc2n[nH]c(=S)n2NC(=O)c2ccccc2)cs1	574 nM	–	–	Non-toxic
COC(=O)CSc1nnc(Cc2csc(NC(C)=O)n2)n1NC(=O)c1ccccc1	587 nM	–	–	Non-toxic
O=C(CSc1nnc(Cc2csc(NC(=O)CCl)n2)n1NC(=O)c1ccccc1)N/N=C/c1ccccc1	467 nM	–	–	Non-toxic
CC(=O)NNC(=O)CSc1nnc(Cc2csc(NC(=O)CCl)n2)n1NC(=O)c1ccccc1	356 nM	–	–	Non-toxic
N#CCSc1nnc(Cc2csc(NCCC(=O)O)n2)n1NC(=O)c1ccc(Cl)cc1	426 nM	–	–	Non-toxic
COC(=O)CSc1nnc(Cc2csc(NC(=O)CCl)n2)n1NC(C)=O	695 nM	–	–	Non-toxic
CC(=O)Nn1c(Cc2csc(NC(=O)c3ccccc3)n2)nnc1SCC#N	574 nM	–	–	Non-toxic
O=C(O)CCNc1nc(Cc2n[nH]c(=S)n2NC(=O)c2ccc(Cl)cc2)cs1	462 nM	–	–	Non-toxic
COC(=O)CSc1nnc(Cc2csc(NC(=O)CCl)n2)n1NC(=O)c1ccccc1	674 nM	–	–	Non-toxic
CC(=O)Nn1c(Cc2csc(NCCC(=O)O)n2)nnc1SCC(=O)NN	943 nM	–	–	Non-toxic

Compound	IC50 [1]	IC50 [2]	Ratio IC50 (Homo sapiens)	Activity [3]
Nn1c(CSc2nnc(Cc3csc(NCCC(=O)O)n3)n2NC(=O)c2ccccc2)n[nH]c1=S	4780 nM	–	–	Non-toxic
CC(=O)Nc1nc(Cc2nnc(SCC#N)n2NC(C)=O)cs1	463 nM	–	–	Non-toxic
CC(=O)Nc1nc(Cc2nnc(SCC#N)n2NC(=O)c2ccccc2)cs1	395 nM	–	–	Non-toxic
CC(=O)Nn1c(Cc2csc(NC(=O)CCl)n2)nnc1SCC(=O)NNC(=O)CCl	462 nM	–	–	Non-toxic
CC(=O)NNC(=O)CSc1nnc(Cc2csc(NCCC(=O)O)n2)n1NC(=O)c1ccccc1	472 nM	–	–	Non-toxic
CC(=O)Nn1c(Cc2csc(NC(=O)c3ccccc3)n2)nnc1SCC(=O)NNC(=O)CCl	356 nM	–	–	Non-toxic
O=C(CSc1nnc(Cc2csc(NC(=O)CCl)n2)n1NC(=O)c1ccc(Cl)cc1)NNC(=O)c1ccccc1	640 nM	–	–	Non-toxic
Nn1c(Cc2csc(NC(=O)c3ccccc3)n2)n[nH]c1=S	630 nM	–	–	Non-toxic
O=C(CCl)Nc1nc(Cc2n[nH]c(=S)n2NC(=O)c2ccccc2)cs1	761 nM	–	–	Non-toxic
O=C(Nc1nc(Cc2nnc(SCSc3nnc(Cc4csc(NC(=O)c5ccccc5)n4)n3NC(=O)c3ccc(Cl)cc3)n2NC(=O)c2ccc(Cl)cc2)cs1)c1ccccc1	640 nM	–	–	Non-toxic
COC(=O)CSc1nnc(Cc2csc(NC(=O)CCl)n2)n1NC(=O)c1ccc(Cl)cc1	440 nM	–	–	Non-toxic
CC(=O)Nc1nc(Cc2nnc(SCC(=O)N/N=C/c3ccccc3)n2NC(C)=O)cs1	463 nM	–	–	Non-toxic
CC(=O)Nc1nc(Cc2nnc(SCc3n[nH]c(=S)n3N)n2NC(=O)c2ccc(Cl)cc2)cs1	7480 nM	–	–	Non-toxic
CC(=O)Nn1c(Cc2csc(NCCC(=O)O)n2)nnc1SCC(=O)NNC(=O)c1ccccc1	476 nM	–	–	Non-toxic
N#CCSc1nnc(Cc2csc(NC(=O)c3ccccc3)n2)n1NC(=O)c1ccccc1	496 nM	–	–	Non-toxic
CC(=O)Nn1c(S)nnc1Cc1csc(NC(=O)c2ccccc2)n1	614 nM	–	–	Non-toxic
O=C(O)CCNc1nc(Cc2nnc(SCC(=O)N/N=C/c3ccccc3)n2NC(=O)c2ccc(Cl)cc2)cs1	238 nM	–	–	Non-toxic
CC(=O)Nc1nc(Cc2nnc(SCC(=O)NNC(=O)CCl)n2NC(=O)c2ccccc2)cs1	643 nM	–	–	Non-toxic
Nn1c(CSc2nnc(Cc3csc(NC(=O)c4ccccc4)n3)n2NC(=O)c2ccc(Cl)cc2)n[nH]c1=S	3180 nM	–	–	Non-toxic
